PubChem BioAssay (NCI)
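Briefly, cells in 96-well plates were exposed to five compound concentrations for 48 h, and endpoints were estimated by linear interpolation. GI50 marks 50% less growth. The concentration for full growth arrest is given as TGI.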

Key:
Assay in all cases: NCI-60 cell line screen, 48 h
IGROV1 ovarian = system: IGROV1 ovarian
SK-OV-3 ovarian = system: SK-OV-3 ovarian
A498 renal = system: A498 renal
HOP-62 NSCLC = system: HOP-62 NSCLC
A549 NSCLC = system: A549 NSCLC
SK-MEL-5 melanoma = system: SK-MEL-5 melanoma
HL-60(TB) leukemia = system: HL-60(TB) leukemia
BT-549 breast = system: BT-549 breast
OVCAR-5 ovarian = system: OVCAR-5 ovarian
CCRF-CEM leukemia = system: CCRF-CEM leukemia
COLO 205 colon = system: COLO 205 colon
HS 578T breast = system: HS 578T breast
MDA-MB-468 breast = system: MDA-MB-468 breast
SF-268 CNS = system: SF-268 CNS
SNB-19 CNS = system: SNB-19 CNS
NCI-H522 lung = system: NCI-H522 lung
MOLT-4 leukemia = system: MOLT-4 leukemia
UACC-62 melanoma = system: UACC-62 melanoma
M14 melanoma = system: M14 melanoma
OVCAR-3 ovarian = system: OVCAR-3 ovarian
HT29 colon = system: HT29 colon
NCI-H460 lung = system: NCI-H460 lung
MALME-3M melanoma = system: MALME-3M melanoma
TK-10 renal = system: TK-10 renal
RPMI-8226 leukemia = system: RPMI-8226 leukemia
SNB-75 CNS = system: SNB-75 CNS
RXF 393 renal = system: RXF 393 renal
SF-539 CNS = system: SF-539 CNS
U251 CNS = system: U251 CNS
SF-295 CNS = system: SF-295 CNS
T-47D breast = system: T-47D breast
UACC-257 melanoma = system: UACC-257 melanoma
CAKI-1 renal = system: CAKI-1 renal
MDA-MB-231 breast = system: MDA-MB-231 breast
HCT-116 colon = system: HCT-116 colon
ACHN renal = system: ACHN renal
786-0 renal = system: 786-0 renal
UO-31 renal = system: UO-31 renal
PC-3 prostate = system: PC-3 prostate
SR leukemia = system: SR leukemia
EKVX NSCLC = system: EKVX NSCLC
HCT-15 colon = system: HCT-15 colon
OVCAR-4 ovarian = system: OVCAR-4 ovarian
SK-MEL-2 melanoma = system: SK-MEL-2 melanoma
SN12C renal = system: SN12C renal
K-562 leukemia = system: K-562 leukemia
SK-MEL-28 melanoma = system: SK-MEL-28 melanoma
DU-145 prostate = system: DU-145 prostate
SW-620 colon = system: SW-620 colon
MDA-MB-435 = system: MDA-MB-435
KM12 colon = system: KM12 colon
MCF7 breast = system: MCF7 breast
LOX IMVI melanoma = system: LOX IMVI melanoma
NCI-H23 lung = system: NCI-H23 lung
NCI-H226 lung = system: NCI-H226 lung
OVCAR-8 ovarian = system: OVCAR-8 ovarian
HCC-2998 colon = system: HCC-2998 colon
HOP-92 NSCLC = system: HOP-92 NSCLC

Compound `O=C1NC(=NC2CCCCCC2)N/C1=C\c1ccc2ncoc2c1` has a GI50 (IGROV1 ovarian) of 4.35 µM, a TGI (IGROV1 ovarian) of 34.1 µM and a GI50 (SK-OV-3 ovarian) of 2710 nM. It also gave a TGI (SK-OV-3 ovarian) of 62.9 µM, a GI50 (A498 renal) of 2090 nM and a TGI (A498 renal) of 8.84 µM. The GI50 (HOP-62 NSCLC) was 3.3 µM, the TGI (HOP-62 NSCLC) was 45.6 µM and the GI50 (A549 NSCLC) was 3.01 µM. For the same compound, the TGI (A549 NSCLC) was 32.1 µM, the GI50 (SK-MEL-5 melanoma) was 3.66 µM and the TGI (SK-MEL-5 melanoma) was 14.8 µM. The GI50 (HL-60(TB) leukemia) was 3.69 µM, the TGI (HL-60(TB) leukemia) was 19.3 µM and the GI50 (BT-549 breast) was 1940 nM. For the same compound, the TGI (BT-549 breast) was 12.3 µM, the GI50 (OVCAR-5 ovarian) was 4.33 µM and the TGI (OVCAR-5 ovarian) was 68.4 µM. The GI50 (CCRF-CEM leukemia) was 2870 nM, the TGI (CCRF-CEM leukemia) was 16.2 µM and the GI50 (COLO 205 colon) was 3.14 µM. It also gave a TGI (COLO 205 colon) of 14.2 µM, a GI50 (HS 578T breast) of 2870 nM and a TGI (HS 578T breast) of 26.5 µM. For the same compound, the GI50 (MDA-MB-468 breast) was 2440 nM, the TGI (MDA-MB-468 breast) was 12.6 µM and the GI50 (SF-268 CNS) was 5.61 µM. The TGI (SF-268 CNS) was 38.8 µM, the GI50 (SNB-19 CNS) was 2430 nM and the TGI (SNB-19 CNS) was 44.6 µM. For the same compound, the GI50 (NCI-H522 lung) was 1270 nM, the TGI (NCI-H522 lung) was 15 µM and the GI50 (MOLT-4 leukemia) was 3.51 µM. The TGI (MOLT-4 leukemia) was 22 µM, the GI50 (UACC-62 melanoma) was 2740 nM and the TGI (UACC-62 melanoma) was 12 µM. The GI50 (M14 melanoma) was 8.62 µM, the TGI (M14 melanoma) was 25.2 µM and the GI50 (OVCAR-3 ovarian) was 2130 nM. For the same compound, the TGI (OVCAR-3 ovarian) was 9.17 µM, the GI50 (HT29 colon) was 9.36 µM and the TGI (HT29 colon) was 37.8 µM. For the same compound, the GI50 (NCI-H460 lung) was 4.08 µM, the TGI (NCI-H460 lung) was 15.6 µM and the GI50 (MALME-3M melanoma) was 10.5 µM. The TGI (MALME-3M melanoma) was 24.4 µM, the GI50 (TK-10 renal) was 3.86 µM and the TGI (TK-10 renal) was > 100 µM. For the same compound, the GI50 (RPMI-8226 leukemia) was 5.22 µM, the TGI (RPMI-8226 leukemia) was 31.7 µM and the GI50 (SNB-75 CNS) was 757 nM. For the same compound, the TGI (SNB-75 CNS) was 12.3 µM, the GI50 (RXF 393 renal) was 2020 nM and the TGI (RXF 393 renal) was 5.32 µM. The GI50 (SF-539 CNS) was 1010 nM, the TGI (SF-539 CNS) was 5.75 µM and the GI50 (U251 CNS) was 3.54 µM. For the same compound, the TGI (U251 CNS) was 68.9 µM, the GI50 (SF-295 CNS) was 7.52 µM and the TGI (SF-295 CNS) was > 100 µM. The GI50 (T-47D breast) was 2870 nM, the TGI (T-47D breast) was 63.2 µM and the GI50 (UACC-257 melanoma) was 5.95 µM. For the same compound, the TGI (UACC-257 melanoma) was 23 µM, the GI50 (CAKI-1 renal) was 2610 nM and the TGI (CAKI-1 renal) was 12.9 µM. The GI50 (MDA-MB-231 breast) was 11.3 µM, the TGI (MDA-MB-231 breast) was 58.4 µM and the GI50 (HCT-116 colon) was 1920 nM. The TGI (HCT-116 colon) was 10.9 µM, the GI50 (ACHN renal) was 2680 nM and the TGI (ACHN renal) was 10.1 µM. The GI50 (786-0 renal) was 5.02 µM, the TGI (786-0 renal) was 47 µM and the GI50 (UO-31 renal) was 3.31 µM. It also gave a TGI (UO-31 renal) of 9.46 µM, a GI50 (PC-3 prostate) of 8.53 µM and a TGI (PC-3 prostate) of 60.6 µM. It also gave a GI50 (SR leukemia) of 1970 nM, a TGI (SR leukemia) of 8.09 µM and a GI50 (EKVX NSCLC) of 8.68 µM. It also gave a TGI (EKVX NSCLC) of 49.4 µM, a GI50 (HCT-15 colon) of 3.41 µM and a TGI (HCT-15 colon) of 26.4 µM. It also gave a GI50 (OVCAR-4 ovarian) of 12.4 µM, a TGI (OVCAR-4 ovarian) of 53.4 µM and a GI50 (SK-MEL-2 melanoma) of 2860 nM. For the same compound, the TGI (SK-MEL-2 melanoma) was 9.46 µM, the GI50 (SN12C renal) was 2890 nM and the TGI (SN12C renal) was 18.1 µM. For the same compound, the GI50 (K-562 leukemia) was 4.97 µM, the TGI (K-562 leukemia) was 37.2 µM and the GI50 (SK-MEL-28 melanoma) was 3.5 µM. It also gave a TGI (SK-MEL-28 melanoma) of 14.1 µM, a GI50 (DU-145 prostate) of 4.02 µM and a TGI (DU-145 prostate) of 17.1 µM. The GI50 (SW-620 colon) was 3.27 µM, the TGI (SW-620 colon) was 18.9 µM and the GI50 (MDA-MB-435) was 6.27 µM. It also gave a TGI (MDA-MB-435) of 21.4 µM, a GI50 (KM12 colon) of 3.83 µM and a TGI (KM12 colon) of 19.1 µM. It also gave a GI50 (MCF7 breast) of 3.58 µM, a TGI (MCF7 breast) of 30.2 µM and a GI50 (LOX IMVI melanoma) of 4.33 µM. The TGI (LOX IMVI melanoma) was 20.9 µM, the GI50 (NCI-H23 lung) was 3.16 µM and the TGI (NCI-H23 lung) was 18.7 µM. For the same compound, the GI50 (NCI-H226 lung) was 2630 nM, the TGI (NCI-H226 lung) was > 100 µM and the GI50 (OVCAR-8 ovarian) was 3.55 µM. The TGI (OVCAR-8 ovarian) was 18 µM, the GI50 (HCC-2998 colon) was 12.3 µM and the TGI (HCC-2998 colon) was 27.6 µM. For the same compound, the GI50 (HOP-92 NSCLC) was 6.58 µM and the TGI (HOP-92 NSCLC) was 58.6 µM.
